Data taken from PMC4503722, “Novel Phenotypic Outcomes Identified for a Public Collection of Approved Drugs from a Publicly Accessible Panel of Assays” (PLoS ONE, 2015).

Key:
SNU-C1 = assay: cells; assay type: cell-based; conditions: for Basal_Viability ATP SNU-C1 IC50/EC50: assay number 30
HT-29 = assay: cells; assay type: cell-based; conditions: for Basal_Viability ATP HT-29 IC50/EC50: assay number 28
Colo320 = assay: cells; assay type: cell-based; conditions: for Basal_Viability ATP Colo 320 IC50/EC50: assay number 27
[1] = system: endothelial tube formation in co-cultures of ECFCs and ADSCs treated with VEGF; assay: cells; assay type: cell-based, human
[2] = system: ECFC/ADSC co-culture cell nuclei number
[3] = system: HCT116 cells treated with a GSK3β inhibitor; assay: cells; assay type: cell-based; conditions: for GSK3b inh pretreated_Viability ATP HCT116 IC50/EC50: assay number 26, GSK3b inhibitor pretreated
HeLa cells = assay: cells; assay type: cell-based; conditions: for Hela CellCycMod PI 2N IC50/EC50: assay number 14; for Hela CellCycMod PI S Phase IC50/EC50: assay number 15; for Hela CellCycMod PI 4N IC50/EC50: assay number 16; for Hela CellCycMod PI MI IC50/EC50: assay number 17; for Hela CellCycMod PI Cell Number IC50/EC50: assay number 18
DLD-1 = assay: cells; assay type: cell-based; conditions: for Basal_Viability ATP DLD-1 IC50/EC50: assay number 23
RKO = assay: cells; assay type: cell-based; conditions: for Basal_Viability ATP RKO IC50/EC50: assay number 29
SW480 = assay: cells; assay type: cell-based; conditions: for Basal_Viability ATP SW480 IC50/EC50: assay number 24
HCT116 = assay: cells; assay type: cell-based; conditions: for Basal_Viability ATP HCT116 IC50/EC50: assay number 25, basal
STC-1 cell line = assay type: cell-based, mouse; conditions: for mSTC-1 GLP1 Secretion IC50/EC50: assay number 13
NCI-H716 cells = assay: cells; assay type: cell-based, Human; conditions: for hNCI-H716 GLP1 Secretion IC50/EC50: assay number 12

SMILES: CCN(CC)CCOc1ccc(C(O)(Cc2ccc(Cl)cc2)c2ccc(C)cc2)cc1 (stereo not drawn) [NCGC00165907-03]
- Basal_Viability ATP SNU-C1 IC50/EC50 (SNU-C1; basal): 2.4577 µM
- Basal_Viability ATP HT-29 IC50/EC50 (HT-29; basal): 3.1665 µM
- Basal_Viability ATP Colo 320 IC50/EC50 (Colo320; basal): 8.9928 µM
- VEGF_ADSC\ECFC Angio CD31 TubeArea IC50/EC50 [1]: 3.2104 µM
- VEGF_ADSC\ECFC Angio Hoechst NucArea IC50/EC50 [2]: 6.977 µM
- GSK3b inh pretreated_Viability ATP HCT116 IC50/EC50 [3]: 3.7372 µM
- Hela CellCycMod PI 2N IC50/EC50 (HeLa cells): > 10 µM
- Hela CellCycMod PI S Phase IC50/EC50 (HeLa cells): > 10 µM
- Hela CellCycMod PI 4N IC50/EC50 (HeLa cells): > 10 µM
- Hela CellCycMod PI MI IC50/EC50 (HeLa cells): > 10 µM
- Hela CellCycMod PI Cell Number IC50/EC50 (HeLa cells): > 10 µM
- Basal_Viability ATP DLD-1 IC50/EC50 (DLD-1; basal): > 20 µM
- Basal_Viability ATP RKO IC50/EC50 (RKO; basal): 0.2987 µM
- Basal_Viability ATP SW480 IC50/EC50 (SW480; basal): 3.7592 µM
- Basal_Viability ATP HCT116 IC50/EC50 (HCT116): > 20 µM
- mSTC-1 GLP1 Secretion IC50/EC50 (STC-1 cell line): > 40 µM
- hNCI-H716 GLP1 Secretion IC50/EC50 (NCI-H716 cells): 36.1068 µM

SMILES: CCCCCCCCCCCCCCCC[N+](C)(C)CC.[Br-] [NCGC00166120-02]
- Basal_Viability ATP SNU-C1 IC50/EC50 (SNU-C1; basal): 0.004 µM
- Basal_Viability ATP HT-29 IC50/EC50 (HT-29; basal): 0.4091 µM
- Basal_Viability ATP Colo 320 IC50/EC50 (Colo320; basal): 0.0372 µM
- VEGF_ADSC\ECFC Angio CD31 TubeArea IC50/EC50 [1]: 1.1378 µM
- VEGF_ADSC\ECFC Angio Hoechst NucArea IC50/EC50 [2]: 7.579 µM
- GSK3b inh pretreated_Viability ATP HCT116 IC50/EC50 [3]: 2.6825 µM
- Basal_Viability ATP DLD-1 IC50/EC50 (DLD-1; basal): 0.7403 µM
- Basal_Viability ATP RKO IC50/EC50 (RKO; basal): 0.9309 µM
- Basal_Viability ATP SW480 IC50/EC50 (SW480; basal): 1.2387 µM
- Basal_Viability ATP HCT116 IC50/EC50 (HCT116): 3.1595 µM
- mSTC-1 GLP1 Secretion IC50/EC50 (STC-1 cell line): > 40 µM
- hNCI-H716 GLP1 Secretion IC50/EC50 (NCI-H716 cells): 11.7347 µM

SMILES: Clc1ccc(CCC(Cn2ccnc2)Sc2c(Cl)cccc2Cl)cc1 (stereo not drawn) [NCGC00179596-03]
- Basal_Viability ATP SNU-C1 IC50/EC50 (SNU-C1): 0.9956 µM
- Basal_Viability ATP HT-29 IC50/EC50 (HT-29): 3.009 µM
- Basal_Viability ATP Colo 320 IC50/EC50 (Colo320): 0.2211 µM
- VEGF_ADSC\ECFC Angio CD31 TubeArea IC50/EC50 [1]: 3.5313 µM
- VEGF_ADSC\ECFC Angio Hoechst NucArea IC50/EC50 [2]: 6.743 µM
- GSK3b inh pretreated_Viability ATP HCT116 IC50/EC50 [3]: 0.8414 µM
- Basal_Viability ATP DLD-1 IC50/EC50 (DLD-1): 1.8367 µM
- Basal_Viability ATP RKO IC50/EC50 (RKO): 2.3045 µM
- Basal_Viability ATP SW480 IC50/EC50 (SW480): 1.6936 µM
- Basal_Viability ATP HCT116 IC50/EC50 (HCT116): 2.0642 µM
- mSTC-1 GLP1 Secretion IC50/EC50 (STC-1 cell line): 6.9953 µM
- hNCI-H716 GLP1 Secretion IC50/EC50 (NCI-H716 cells): 15.9807 µM

SMILES: Clc1ccc(C(Cn2ccnc2)OCc2c(Cl)cccc2Cl)c(Cl)c1 (stereo not drawn) [NCGC00179642-03]
- Basal_Viability ATP SNU-C1 IC50/EC50 (SNU-C1): 0.8861 µM
- Basal_Viability ATP HT-29 IC50/EC50 (HT-29): 5.0032 µM
- Basal_Viability ATP Colo 320 IC50/EC50 (Colo320): 1.8168 µM
- GSK3b inh pretreated_Viability ATP HCT116 IC50/EC50 [3]: 1.3984 µM
- Basal_Viability ATP DLD-1 IC50/EC50 (DLD-1): 2.3554 µM
- Basal_Viability ATP RKO IC50/EC50 (RKO): 4.0107 µM
- Basal_Viability ATP SW480 IC50/EC50 (SW480): 2.6011 µM
- Basal_Viability ATP HCT116 IC50/EC50 (HCT116): 1.5939 µM
- mSTC-1 GLP1 Secretion IC50/EC50 (STC-1 cell line): > 40 µM
- hNCI-H716 GLP1 Secretion IC50/EC50 (NCI-H716 cells): > 40 µM

SMILES: Cl.Oc1ccc([C@H]2CNCc3c2ccc(O)c3O)cc1O [NCGC00183049-01]
- Basal_Viability ATP SNU-C1 IC50/EC50 (SNU-C1): > 20 µM
- Basal_Viability ATP HT-29 IC50/EC50 (HT-29): > 20 µM
- Basal_Viability ATP Colo 320 IC50/EC50 (Colo320): 0.4662 µM
- GSK3b inh pretreated_Viability ATP HCT116 IC50/EC50 [3]: 0.1876 µM
- Hela CellCycMod PI 2N IC50/EC50 (HeLa cells): > 10 µM
- Hela CellCycMod PI S Phase IC50/EC50 (HeLa cells): > 10 µM
- Hela CellCycMod PI 4N IC50/EC50 (HeLa cells): > 10 µM
- Hela CellCycMod PI MI IC50/EC50 (HeLa cells): > 10 µM
- Hela CellCycMod PI Cell Number IC50/EC50 (HeLa cells): > 10 µM
- Basal_Viability ATP DLD-1 IC50/EC50 (DLD-1): > 20 µM
- Basal_Viability ATP RKO IC50/EC50 (RKO): 0.03316 µM
- Basal_Viability ATP SW480 IC50/EC50 (SW480): > 20 µM
- Basal_Viability ATP HCT116 IC50/EC50 (HCT116): > 20 µM
- mSTC-1 GLP1 Secretion IC50/EC50 (STC-1 cell line): > 20 µM
- hNCI-H716 GLP1 Secretion IC50/EC50 (NCI-H716 cells): 5.9462 µM

SMILES: CN1CCN(CCCN2c3ccccc3Sc3ccc(C(F)(F)F)cc32)CC1.Cl.Cl [NCGC00186653-01]
- IC50/EC50, Basal_Viability ATP SNU-C1 (assay number 30) (SNU-C1): 2.6302 µM
- IC50/EC50, Basal_Viability ATP HT-29 (assay number 28) (HT-29): 2.8136 µM
- IC50/EC50, Basal_Viability ATP Colo 320 (assay number 27) (Colo320): 2.3611 µM
- IC50/EC50, VEGF_ADSC\ECFC Angio CD31 TubeArea (assay number 2) [1]: > 10 µM
- IC50/EC50, VEGF_ADSC\ECFC Angio Hoechst NucArea (assay number 3) [2]: > 10 µM
- IC50/EC50, GSK3b inh pretreated_Viability ATP HCT116 (assay number 26) [3]: 3.234 µM
- IC50/EC50, Basal_Viability ATP DLD-1 (assay number 23) (DLD-1): 7.3544 µM
- IC50/EC50, Basal_Viability ATP RKO (assay number 29) (RKO): 0.5653 µM
- IC50/EC50, Basal_Viability ATP SW480 (assay number 24) (SW480): 2.723 µM
- IC50/EC50, Basal_Viability ATP HCT116 (assay number 25) (HCT116): 7.225 µM
- IC50/EC50, mSTC-1 GLP1 Secretion (assay number 13) (STC-1 cell line): > 40 µM
- IC50/EC50, hNCI-H716 GLP1 Secretion (assay number 12) (NCI-H716 cells): > 40 µM
